Source: patent publication US20230219969A1 (priority 2020, published 2023)

Molecular target: T1, 5-HT2C edited (accession number AAF35842.1) (Homo sapiens, UniProt P28335, I156V/I160V/N158S)
Assay: biochemical
Assay type: binding
Target sequence in this assay (P28335 whole entry I156V/N158S/I160V, looked up): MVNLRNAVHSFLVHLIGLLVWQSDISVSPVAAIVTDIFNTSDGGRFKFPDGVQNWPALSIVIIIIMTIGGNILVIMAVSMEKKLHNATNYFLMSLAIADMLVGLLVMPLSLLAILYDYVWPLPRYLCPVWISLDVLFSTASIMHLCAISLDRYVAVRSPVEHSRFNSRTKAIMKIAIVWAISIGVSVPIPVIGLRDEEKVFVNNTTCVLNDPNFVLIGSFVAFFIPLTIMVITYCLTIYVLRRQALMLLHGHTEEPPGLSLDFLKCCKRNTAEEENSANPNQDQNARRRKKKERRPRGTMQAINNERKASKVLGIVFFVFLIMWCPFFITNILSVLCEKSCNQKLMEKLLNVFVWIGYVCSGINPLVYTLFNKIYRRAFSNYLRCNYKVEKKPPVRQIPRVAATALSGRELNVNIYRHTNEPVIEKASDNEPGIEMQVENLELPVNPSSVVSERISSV

Compound | IC50
CN(C)C(C)(C)Cn1ccc2ccc(F)cc21 [Example 19, 1-(6-fluoro-1H-indol-1-yl)-N,N,2-trimethylpropan-2-amine] | > 10 µM
C[C@H](Cn1ccc2cnccc21)N(C)C [Example 39, (R)—N,N-dimethyl-1-(1H-pyrrolo[3,2-c]pyridin-1-yl)propan-2-amine] | > 10 µM
CN(C)C(C)(C)Cn1ccc2c(F)c(F)ccc21 [Example 12, 1-(4,5-difluoro-1H-indol-1-yl)-N,N,2-trimethylpropan-2-amine] | > 10 µM
COc1ccc2c(ccn2CC(C)(C)N(C)C)c1 [Example 1, 1-(5-methoxy-1H-indol-1-yl)-N,N,2-trimethylpropan-2-amine] | 1 to 10 µM
CC(C)(N)Cn1ccc2c(F)c(F)ccc21 [Example 41, 1-(4,5-difluoro-1H-indol-1-yl)-2-methylpropan-2-amine] | 0.101 to 1 µM
COc1ccc2c(ccn2C(=O)CN(C)C)c1 [Example 45, 2-(dimethylamino)-1-(5-methoxy-1H-indol-1-yl)ethan-1-one] | > 10 µM
COc1cnc2c(ccn2C[C@@H](C)N)c1 [Example 34, (R)-1-(5-methoxy-1H-pyrrolo[2,3-b]pyridin-1-yl)propan-2-amine] | 1 to 10 µM
COc1ncc2c(ccn2CC(C)(C)N(C)C)n1 [Example 23, 1-(2-methoxy-5H-pyrrolo[3,2-d]pyrimidin-5-yl)-N,N,2-trimethylpropan-2-amine] | > 10 µM
C[C@@H](N)Cn1ccc2cnccc21 [Example 37, (R)-1-(1H-pyrrolo[3,2-c]pyridin-1-yl)propan-2-amine] | > 10 µM
COc1ccc2c(c1)CN(CCN(C)C)C2 [Example 10, 2-(5-methoxyisoindolin-2-yl)-N,N-dimethylethan-1-amine] | 1 to 10 µM
CN(C)CCn1ccc2cncnc21 [Example 6, N,N-dimethyl-2-(7H-pyrrolo[2,3-d]pyrimidin-7-yl)ethan-1-amine] | 1 to 10 µM
CN[C@H](C)Cn1ccc2cnccc21 [Example 38, (R)—N-methyl-1-(1H-pyrrolo[3,2-c]pyridin-1-yl)propan-2-amine] | > 10 µM
CN(C)CCn1ccc2cnccc21 [Example 7, N,N-dimethyl-2-(1H-pyrrolo[3,2-c]pyridin-1-yl)ethan-1-amine] | > 10 µM
COc1ccc2c(ccn2CCN(C)C)n1 [Example 3, 2-(5-methoxy-1H-pyrrolo[3,2-b]pyridin-1-yl)-N,N-dimethylethan-1-amine] | 0.101 to 1 µM
CN(C)CC(=O)n1ccc2ccccc21 [Example 44, 2-(dimethylamino)-1-(1H-indol-1-yl)ethan-1-one] | > 10 µM
CN(C)C(C)(C)Cn1ccc2cccc(F)c21 [Example 20, 1-(7-fluoro-1H-indol-1-yl)-N,N,2-trimethylpropan-2-amine] | > 10 µM
COc1cc2ccn(C[C@@H](C)N(C)C)c2cn1 [Example 33, (R)-1-(5-methoxy-1H-pyrrolo[2,3-c]pyridin-1-yl)-N,N-dimethylpropan-2-amine] | > 10 µM
Cc1cn(CC(C)(C)N)c2ccc(F)cc12 [Example 40, 1-(5-fluoro-3-methyl-1H-indol-1-yl)-2-methylpropan-2-amine] | 0.101 to 1 µM
CN(C)C(C)(C)Cn1ccc2c(F)cccc21 [Example 18, 1-(4-fluoro-1H-indol-1-yl)-N,N,2-trimethylpropan-2-amine] | > 10 µM
COc1ccc2c(ccn2CC(C)(C)N(C)C)n1 [Example 21, 1-(5-methoxy-1H-pyrrolo[3,2-b]pyridin-1-yl)-N,N,2-trimethylpropan-2-amine] | > 10 µM
COc1cc2ccn(C[C@@H](C)N)c2cn1 [Example 31, (R)-1-(5-methoxy-1H-pyrrolo[2,3-c]pyridin-1-yl)propan-2-amine] | 0.101 to 1 µM
COc1ccc2c(c1)CCN(CCN(C)C)C2 [Example 11, 2-(6-methoxy-3,4-dihydroisoguinolin-2(1H)-yl)-N,N-dimethylethan-1-amine] | 0.101 to 1 µM

Compound | IC50
COc1ccc2c(ccn2CC2(N(C)C)CC2)c1 [Example 2, 1-((5-methoxy-1H-indol-1-yl)methyl)-N,N-dimethylcyclopropan-1-amine] | 1 to 10 µM
Cc1cn(CC(C)(C)N(C)C)c2ccc(F)cc12 [Example 13, 1-(5-fluoro-3-methyl-1H-indol-1-yl)-N,N,2-trimethylpropan-2-amine] | 1 to 10 µM
CN[C@H](C)Cn1ccc2cc(OC)ncc21 [Example 32, (R)-1-(5-methoxy-1H-pyrrolo[2,3-c]pyridin-1-yl)-N-methylpropan-2-amine] | 1 to 10 µM
COc1ccc2c(ccn2[C@H]2C[C@H](N(C)C)C2)c1 [Example 25, (1r,3r)-3-(5-methoxy-1H-indol-1-yl)-N,N-dimethylcyclobutan-1-amine] | 1 to 10 µM
COc1cc2ccn(CC(C)(C)N(C)C)c2cc1F [Example 16, 1-(6-fluoro-5-methoxy-1H-indol-1-yl)-N,N,2-trimethylpropan-2-amine] | > 10 µM
COc1ccc2c(ccn2CC(C)(C)N(C)C)c1F [Example 15, 1-(4-fluoro-5-methoxy-1H-indol-1-yl)-N,N,2-trimethylpropan-2-amine] | > 10 µM
COc1ccc2c(c1)CCN2CCN(C)C [Example 8, 2-(5-methoxyindolin-1-yl)-N,N-dimethylethan-1-amine] | 1 to 10 µM
C[C@H](C(=O)n1ccc2cc(F)ccc21)N(C)C [Example 48, (R)-2-(dimethylamino)-1-(5-fluoro-1H-indol-1-yl)propan-1-one] | 1 to 10 µM
COc1cnc2c(ccn2C[C@@H](C)N(C)C)c1 [Example 36, (R)-1-(5-methoxy-1H-pyrrolo[2,3-b]pyridin-1-yl)-N,N-dimethylpropan-2-amine] | 1 to 10 µM
COc1cc2ccn(CC(C)(C)N(C)C)c2cn1 [Example 22, 1-(5-methoxy-1H-pyrrolo[2,3-c]pyridin-1-yl)-N,N,2-trimethylpropan-2-amine] | > 10 µM
CN[C@H](C)Cn1ccc2cc(OC)cnc21 [Example 35, (R)-1-(5-methoxy-1H-pyrrolo[2,3-b]pyridin-1-yl)-N-methylpropan-2-amine] | > 10 µM
COc1ccc2c(c1)CCCN2CCN(C)C [Example 9, 2-(6-methoxy-3,4-dihydroquinolin-1(2H)-yl)-N,N-dimethylethan-1-amine] | 0.101 to 1 µM
C[C@@H](N)Cn1ccc2cncnc21 [Example 26, (R)-1-(7H-pyrrolo[2,3-d]pyrimidin-7-yl)propan-2-amine] | 1 to 10 µM
COc1cnc2c(ccn2CCN(C)C)c1 [Example 5, 2-(5-methoxy-1H-pyrrolo[2,3-b]pyridin-1-yl)-N,N-dimethylethan-1-amine] | 0.101 to 1 µM
CN(C)C(C)(C)Cn1ccc2cc(F)ccc21 [Example 14, 1-(5-fluoro-1H-indol-1-yl)-N,N,2-trimethylpropan-2-amine] | > 10 µM
COc1ccc2c(ccn2CC(C)(C)N)c1 [Example 42, 1-(5-methoxy-1H-indol-1-yl)-2-methylpropan-2-amine] | 1 to 10 µM
COc1cc2ccn(CCN(C)C)c2cn1 [Example 4, 2-(5-methoxy-1H-pyrrolo[2,3-c]pyridin-1-yl)-N,N-dimethylethan-1-amine] | 0.101 to 1 µM
COc1cc(F)c2c(ccn2CC(C)(C)N(C)C)c1 [Example 17, 1-(7-fluoro-5-methoxy-1H-indol-1-yl)-N,N,2-trimethylpropan-2-amine] | > 10 µM
C[C@H](C(=O)n1ccc2ccccc21)N(C)C [Example 46, (R)-2-(dimethylamino)-1-(1H-indol-1-yl)propan-1-one] | 1 to 10 µM
COc1ccc2c(ccn2C[C@@H](C)N)n1 [Example 28, (R)-1-(5-methoxy-1H-pyrrolo[3,2-b]pyridin-1-yl)propan-2-amine] | > 10 µM
C[C@H](Cn1ccc2cncnc21)N(C)C [Example 27, (R)—N,N-dimethyl-1-(7H-pyrrolo[2,3-d]pyrimidin-7-yl)propan-2-amine] | > 10 µM

Molecular target: T1, 5-HT2C edited (accession number AAF35842.1)
Assay: cell-based
Target sequence in this assay (P28335 33-458 I156V/N158S/I160V limits assumed): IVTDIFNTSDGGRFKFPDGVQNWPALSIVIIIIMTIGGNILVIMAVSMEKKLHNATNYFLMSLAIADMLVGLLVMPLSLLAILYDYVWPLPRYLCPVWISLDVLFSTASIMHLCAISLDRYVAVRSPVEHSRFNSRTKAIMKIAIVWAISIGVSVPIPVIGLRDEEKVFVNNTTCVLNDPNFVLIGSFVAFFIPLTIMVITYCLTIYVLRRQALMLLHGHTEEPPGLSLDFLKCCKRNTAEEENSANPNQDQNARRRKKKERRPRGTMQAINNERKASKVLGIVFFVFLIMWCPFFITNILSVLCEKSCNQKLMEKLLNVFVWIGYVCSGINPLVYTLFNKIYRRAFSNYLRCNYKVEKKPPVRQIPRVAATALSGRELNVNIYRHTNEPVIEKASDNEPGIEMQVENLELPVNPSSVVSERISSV

Compound | EC50
CN(C)C(C)(C)Cn1ccc2ccc(F)cc21 [Example 19, 1-(6-fluoro-1H-indol-1-yl)-N,N,2-trimethylpropan-2-amine] | > 10 µM
C[C@H](Cn1ccc2cnccc21)N(C)C [Example 39, (R)—N,N-dimethyl-1-(1H-pyrrolo[3,2-c]pyridin-1-yl)propan-2-amine] | > 10 µM
CN(C)C(C)(C)Cn1ccc2c(F)c(F)ccc21 [Example 12, 1-(4,5-difluoro-1H-indol-1-yl)-N,N,2-trimethylpropan-2-amine] | > 10 µM
COc1ccc2c(ccn2CC(C)(C)N(C)C)c1 [Example 1, 1-(5-methoxy-1H-indol-1-yl)-N,N,2-trimethylpropan-2-amine] | > 10 µM
CC(C)(N)Cn1ccc2c(F)c(F)ccc21 [Example 41, 1-(4,5-difluoro-1H-indol-1-yl)-2-methylpropan-2-amine] | 0.101 to 1 µM
COc1ccc2c(ccn2C(=O)CN(C)C)c1 [Example 45, 2-(dimethylamino)-1-(5-methoxy-1H-indol-1-yl)ethan-1-one] | > 10 µM
COc1cnc2c(ccn2C[C@@H](C)N)c1 [Example 34, (R)-1-(5-methoxy-1H-pyrrolo[2,3-b]pyridin-1-yl)propan-2-amine] | 1 to 10 µM
COc1ncc2c(ccn2CC(C)(C)N(C)C)n1 [Example 23, 1-(2-methoxy-5H-pyrrolo[3,2-d]pyrimidin-5-yl)-N,N,2-trimethylpropan-2-amine] | > 10 µM
C[C@@H](N)Cn1ccc2cnccc21 [Example 37, (R)-1-(1H-pyrrolo[3,2-c]pyridin-1-yl)propan-2-amine] | 1 to 10 µM
COc1ccc2c(c1)CN(CCN(C)C)C2 [Example 10, 2-(5-methoxyisoindolin-2-yl)-N,N-dimethylethan-1-amine] | 1 to 10 µM
CN(C)CCn1ccc2cncnc21 [Example 6, N,N-dimethyl-2-(7H-pyrrolo[2,3-d]pyrimidin-7-yl)ethan-1-amine] | > 10 µM
CN[C@H](C)Cn1ccc2cnccc21 [Example 38, (R)—N-methyl-1-(1H-pyrrolo[3,2-c]pyridin-1-yl)propan-2-amine] | > 10 µM
CN(C)CCn1ccc2cnccc21 [Example 7, N,N-dimethyl-2-(1H-pyrrolo[3,2-c]pyridin-1-yl)ethan-1-amine] | > 10 µM
COc1ccc2c(ccn2CCN(C)C)n1 [Example 3, 2-(5-methoxy-1H-pyrrolo[3,2-b]pyridin-1-yl)-N,N-dimethylethan-1-amine] | > 10 µM
CN(C)CC(=O)n1ccc2ccccc21 [Example 44, 2-(dimethylamino)-1-(1H-indol-1-yl)ethan-1-one] | > 10 µM
CN(C)C(C)(C)Cn1ccc2cccc(F)c21 [Example 20, 1-(7-fluoro-1H-indol-1-yl)-N,N,2-trimethylpropan-2-amine] | > 10 µM
COc1cc2ccn(C[C@@H](C)N(C)C)c2cn1 [Example 33, (R)-1-(5-methoxy-1H-pyrrolo[2,3-c]pyridin-1-yl)-N,N-dimethylpropan-2-amine] | > 10 µM
Cc1cn(CC(C)(C)N)c2ccc(F)cc12 [Example 40, 1-(5-fluoro-3-methyl-1H-indol-1-yl)-2-methylpropan-2-amine] | 0.101 to 1 µM
CN(C)C(C)(C)Cn1ccc2c(F)cccc21 [Example 18, 1-(4-fluoro-1H-indol-1-yl)-N,N,2-trimethylpropan-2-amine] | > 10 µM
COc1ccc2c(ccn2CC(C)(C)N(C)C)n1 [Example 21, 1-(5-methoxy-1H-pyrrolo[3,2-b]pyridin-1-yl)-N,N,2-trimethylpropan-2-amine] | > 10 µM
COc1cc2ccn(C[C@@H](C)N)c2cn1 [Example 31, (R)-1-(5-methoxy-1H-pyrrolo[2,3-c]pyridin-1-yl)propan-2-amine] | 0.101 to 1 µM
COc1ccc2c(c1)CCN(CCN(C)C)C2 [Example 11, 2-(6-methoxy-3,4-dihydroisoguinolin-2(1H)-yl)-N,N-dimethylethan-1-amine] | > 10 µM

Compound | EC50
COc1ccc2c(ccn2CC2(N(C)C)CC2)c1 [Example 2, 1-((5-methoxy-1H-indol-1-yl)methyl)-N,N-dimethylcyclopropan-1-amine] | > 10 µM
Cc1cn(CC(C)(C)N(C)C)c2ccc(F)cc12 [Example 13, 1-(5-fluoro-3-methyl-1H-indol-1-yl)-N,N,2-trimethylpropan-2-amine] | 1 to 10 µM
CN[C@H](C)Cn1ccc2cc(OC)ncc21 [Example 32, (R)-1-(5-methoxy-1H-pyrrolo[2,3-c]pyridin-1-yl)-N-methylpropan-2-amine] | 1 to 10 µM
COc1ccc2c(ccn2[C@H]2C[C@H](N(C)C)C2)c1 [Example 25, (1r,3r)-3-(5-methoxy-1H-indol-1-yl)-N,N-dimethylcyclobutan-1-amine] | > 10 µM
COc1cc2ccn(CC(C)(C)N(C)C)c2cc1F [Example 16, 1-(6-fluoro-5-methoxy-1H-indol-1-yl)-N,N,2-trimethylpropan-2-amine] | > 10 µM
COc1ccc2c(ccn2CC(C)(C)N(C)C)c1F [Example 15, 1-(4-fluoro-5-methoxy-1H-indol-1-yl)-N,N,2-trimethylpropan-2-amine] | > 10 µM
COc1ccc2c(c1)CCN2CCN(C)C [Example 8, 2-(5-methoxyindolin-1-yl)-N,N-dimethylethan-1-amine] | > 10 µM
C[C@H](C(=O)n1ccc2cc(F)ccc21)N(C)C [Example 48, (R)-2-(dimethylamino)-1-(5-fluoro-1H-indol-1-yl)propan-1-one] | > 10 µM
COc1cnc2c(ccn2C[C@@H](C)N(C)C)c1 [Example 36, (R)-1-(5-methoxy-1H-pyrrolo[2,3-b]pyridin-1-yl)-N,N-dimethylpropan-2-amine] | 1 to 10 µM
COc1cc2ccn(CC(C)(C)N(C)C)c2cn1 [Example 22, 1-(5-methoxy-1H-pyrrolo[2,3-c]pyridin-1-yl)-N,N,2-trimethylpropan-2-amine] | > 10 µM
CN[C@H](C)Cn1ccc2cc(OC)cnc21 [Example 35, (R)-1-(5-methoxy-1H-pyrrolo[2,3-b]pyridin-1-yl)-N-methylpropan-2-amine] | 1 to 10 µM
COc1ccc2c(c1)CCCN2CCN(C)C [Example 9, 2-(6-methoxy-3,4-dihydroquinolin-1(2H)-yl)-N,N-dimethylethan-1-amine] | > 10 µM
C[C@@H](N)Cn1ccc2cncnc21 [Example 26, (R)-1-(7H-pyrrolo[2,3-d]pyrimidin-7-yl)propan-2-amine] | 1 to 10 µM
COc1cnc2c(ccn2CCN(C)C)c1 [Example 5, 2-(5-methoxy-1H-pyrrolo[2,3-b]pyridin-1-yl)-N,N-dimethylethan-1-amine] | > 10 µM
CN(C)C(C)(C)Cn1ccc2cc(F)ccc21 [Example 14, 1-(5-fluoro-1H-indol-1-yl)-N,N,2-trimethylpropan-2-amine] | > 10 µM
COc1ccc2c(ccn2CC(C)(C)N)c1 [Example 42, 1-(5-methoxy-1H-indol-1-yl)-2-methylpropan-2-amine] | 1 to 10 µM
COc1cc2ccn(CCN(C)C)c2cn1 [Example 4, 2-(5-methoxy-1H-pyrrolo[2,3-c]pyridin-1-yl)-N,N-dimethylethan-1-amine] | > 10 µM
COc1cc(F)c2c(ccn2CC(C)(C)N(C)C)c1 [Example 17, 1-(7-fluoro-5-methoxy-1H-indol-1-yl)-N,N,2-trimethylpropan-2-amine] | > 10 µM
C[C@H](C(=O)n1ccc2ccccc21)N(C)C [Example 46, (R)-2-(dimethylamino)-1-(1H-indol-1-yl)propan-1-one] | > 10 µM
COc1ccc2c(ccn2C[C@@H](C)N)n1 [Example 28, (R)-1-(5-methoxy-1H-pyrrolo[3,2-b]pyridin-1-yl)propan-2-amine] | 1 to 10 µM
C[C@H](Cn1ccc2cncnc21)N(C)C [Example 27, (R)—N,N-dimethyl-1-(7H-pyrrolo[2,3-d]pyrimidin-7-yl)propan-2-amine] | > 10 µM
